Test results from US20120301468A1, “ANTI-MN ANTIBODIES AND METHODS OF USING SAME” (BAYER HEALTHCARE LLC, priority 2005, published 2012).

Tests used:
[1] = test system: high MN-expressing huMN-MIAPaCa2 xenograft; experiment: huMN-MIAPaCa2 xenograft model; assay type: in vivo, mice; conditions: for TGI: end of dosing
Experimental: To better understand the relationship between MN expression and antitumor efficacy, xenograft efficacy studies were conducted using a low MN-expressing pancreatic model, MIAPaCa2 and high MN-expressing huMN-MIAPaCa2 model. This latter line was derived by engineering the MIAPaCa2 line to stably express MN. […] 3ee9/MMAE dosed at 10 mg/kg only produced 50% TGI.

[2] = test system: MN non-expressing cells (H460); experiment: Spindle formation / tubulin staining, H460; assay type: cell-based; conditions: tubulin stained with fluorescence labeled antibody
Source text: The cytotoxic drug MMAE delivered by 3ee9/MMAE is a tubulin inhibitor that prevents spindle formation during cell mitosis resulting in G2/M arrest. The tubulin is stained with florescence labeled antibody. […] These studies confirmed that the antibody drug conjugate 3ee9/MMAE kills cell through targeted tubulin disruption.

Work on “3ee9/MMAE: human anti-MN IgG1 antibody 3ee9 conjugated to Monomethylauristatin E (MMAE)” yielded a TGI ([1]; 2.5 mg/kg) of 63%, a TGI ([1]; 5 mg/kg) of 82% and a responses ([1]; 10 mg/kg) of 100%. The TGI ([1]; 10 mg/kg) was 94% and the “effect on spindle formation” value [2] was “No activity”.
